Values of other authors as cited in patent publication EP0280593B1, “Composition on the basis of an amino-acid and vitamins for use in cancer therapy” (Rougereau, André, priority 1987, dated 1988).

Key:
rat = details: par voie orale chez le rat
souris = details: par voie orale chez la souris

Compound: NCCC(=O)O [β-alanine]
- dose léthale DL₅₀ (rat): > 10 g/kg
- dose léthale DL₅₀ (souris): > 10 g/kg
